Data reported in article PMC6689975, “Novel Cell Wall Antifungals Reveal a Special Synergistic Activity in pbr1 Mutants Resistant to the Glucan Synthesis Antifungals Papulacandins and Echinocandins” (Frontiers in Microbiology, 2019).
≈ marks a conversion by molar mass, not a printed value.

What follows are compounds tested on C. albicans wild-type (assay: microbe, parasite or virus in culture). Conditions: Candida albicans, read-out: MIC.
Set-up: species or system whole yeast cells; micro-culture broth dilution MIC in YES at 30 C, turbidity, complete growth inhibition
Method: (§1) Standard YEPD (Yeast Extract, Peptone, Dextrose) ([Sherman, 1990]), YEPD+S (YEPD with 1.2M sorbitol), YES (Yeast Extract, Dextrose and Supplements of Adenine, Histidine, Leucine, Uracil and Lysine) ([Alfa et al., 1993]) and YES+S (YES with 1.2 M sorbitol) ([Ribas et al., 1991]; [Ishiguro et al., 1997]), media were used for determination of MIC values of the tested compounds. A stock solution of 10 mg/ml of each tested compounds was prepared in DMSO and serial dilutions in DMSO were prepared. The final concentration of DMSO was 2% in the YEPD medium. […] The serial dilutions of compounds were dispensed into test tubes with 1 ml of YEPD or YEPD+S to make final concentrations of 200, 100, 50, 25, 12.5, 6.26, 3.125, 1.6, 0.8 and 0.4 μg/ml. The tested yeast strains were previously grown in YEPD, YEPD+S, YES or YES+S agar plates at 30°C for 48 h. Micro-culture assays of large numbers of samples were analyzed as described) ([Martins et al., 2011]). Essentially early log-phase cells were grown in YEPD, YEPD+S, YES or YES+S (1.2 M sorbitol) medium at 30°C, and diluted to cell density of 4 X 10^6 cells/ml in YEPD, YEPD+S, YES or YES+S medium and aliquots of 100 μl were dispensed into each small test tube (3 ml test tube size). Then, another 100 μl of YEPD, YEPD+S, YES or YES+S with the corresponding dilution of each compound at 2X concentration (4% DMSO) was added. The final volume was 200 μl, with the cells diluted to of 2 X 10^6 cells/ml and each compound diluted to 1X final concentration, containing increasing concentrations of antifungal (0, 1, 2, 5, 10, 20, 50, 100 and 200 μg/ml) or an equivalent volume of solvent (2% DMSO). The cells were grown at 30°C in an orbital roller and turbidity was analyzed after 24 and 48 h of incubation. The MIC was determined as the minimal concentration of tested compound that produced complete cell growth inhibition and kept the medium clear. The MIC values were calculated from at least three independent experiments. Next, the first generation of isochromanones (1E-16E) was also screened in YES medium (Table 5) and exerted a weaker antifungal potency than in YEPD medium and also than the second family of isochromanones in YES medium (17E-30E) (Table 6). The strains are partly different from the previously mentioned ones (Tables 5, 6) analyzing two wild type C. albicans strains because they behaved similarly in YEPD. It is remarkable that there was no effect against either the C. albicans, the S. cerevisiae, or the S. pombe wild-type strains, except with 30E.

SMILES | MIC [µg/mL]
O=C1OCc2ccccc2/C1=C\c1ccccc1Br [14E] | > 200
O=C1OCc2ccccc2/C1=C\c1cccc(O)c1 [16E] | > 200

Same assay, conditions: Candida albicans; YES medium, C. albicans strain f

SMILES | MIC [µg/mL]
O=C1OCc2ccccc2/C1=C/c1ccc([N+](=O)[O-])cc1 [17Z] | > 200

Same assay, conditions: Candida albicans; YES medium, C. albicans strain g

SMILES | MIC [µg/mL]
O=C1OCc2ccccc2/C1=C/c1ccc([N+](=O)[O-])cc1 [17Z] | > 200

What follows are compounds tested on T1, S. cerevisiae wild-type CVX12-3A (assay: microbe, parasite or virus in culture). Conditions: Saccharomyces cerevisiae, read-out: MIC.
T1 construct: CVX12-3A
Set-up: species or system whole yeast cells; micro-culture broth dilution MIC in YES at 30 C, turbidity, complete growth inhibition
Method: as §1

SMILES | MIC [µg/mL]
O=C1OCc2ccccc2/C1=C\c1ccccc1Br [14E] | > 200
O=C1OCc2ccccc2/C1=C\c1cccc(O)c1 [16E] | > 200

Same assay, conditions: Saccharomyces cerevisiae; YES medium

SMILES | MIC [µg/mL]
O=C1OCc2ccccc2/C1=C/c1ccc([N+](=O)[O-])cc1 [17Z] | > 200

These compounds were tested on T2, S. pombe wild-type 972 h- (assay: microbe, parasite or virus in culture). Conditions: Schizosaccharomyces pombe, read-out: MIC.
T2 construct: 972 h-
Set-up: species or system whole yeast cells; micro-culture broth dilution MIC in YES at 30 C, turbidity, complete growth inhibition
Method: as §1

SMILES | MIC [µg/mL]
O=C1OCc2ccccc2/C1=C\c1ccccc1Br [14E] | > 200
O=C1OCc2ccccc2/C1=C\c1cccc(O)c1 [16E] | > 200

Same assay, conditions: Schizosaccharomyces pombe; YES medium

SMILES | MIC [µg/mL]
O=C1OCc2ccccc2/C1=C/c1ccc([N+](=O)[O-])cc1 [17Z] | > 200

What follows are compounds tested on C. albicans wild-type (assay: microbe, parasite or virus in culture). Conditions: Candida albicans, 48 h, read-out: MIC.
Set-up: species or system whole yeast cells; macro tube broth dilution MIC in YEPD at 30 C, visual clearness of medium
Method: (§2) Standard YEPD (Yeast Extract, Peptone, Dextrose) ([Sherman, 1990]), YEPD+S (YEPD with 1.2M sorbitol), YES (Yeast Extract, Dextrose and Supplements of Adenine, Histidine, Leucine, Uracil and Lysine) ([Alfa et al., 1993]) and YES+S (YES with 1.2 M sorbitol) ([Ribas et al., 1991]; [Ishiguro et al., 1997]), media were used for determination of MIC values of the tested compounds. A stock solution of 10 mg/ml of each tested compounds was prepared in DMSO and serial dilutions in DMSO were prepared. The final concentration of DMSO was 2% in the YEPD medium. […] The serial dilutions of compounds were dispensed into test tubes with 1 ml of YEPD or YEPD+S to make final concentrations of 200, 100, 50, 25, 12.5, 6.26, 3.125, 1.6, 0.8 and 0.4 μg/ml. The tested yeast strains were previously grown in YEPD, YEPD+S, YES or YES+S agar plates at 30°C for 48 h. For inoculation of YEPD or YEPD+S macro test tubes a suspension of tested fungus was produced with 10^5 cfu/ml (cfu - colony forming unit). 10 μl of suspension was used for inoculation of each tube. After 48 h incubation at 30°C the tubes were checked. The MIC value is the lowest concentration of the tested compound that could inhibit the fungal growth and the medium remained clear. From each tube 10 μl culture was plated on YEPD agar medium to check the contamination. The MIC tests were carried out in three parallels. The screening of the first generation of isochromanones was carried out in YEPD and YEPD+S media (1E-16E). The fungal strains analyzed are: C. albicans wild-type ATCC 26555, SC5314 and ATCC 90028, S. cerevisiae wild-type CVX12-3A and pbr1-1 mutant, and S. pombe wild-type (972h^–), pbr1-8 mutant and pbr1-6 mutant. The bold numbers in Tables 4–6 indicate the more efficient compounds. […] The weak or moderate efficacy against the C. albicans wild-type strains was observed by some substances (3E, 4Z, 5Z, 10E, 15, and 16E). The efficiency toward the S. pombe pbr1-6 mutant strain was the highest inhibitory activity, except 7E, 11E, 12 and 14E. […] As regards the other S. pombe pbr1-8 mutant strain, the antifungal activity of the tested compounds was slightly lower, but the substances with the best activity are partly identical to the best compounds mentioned with pbr1-6, (i.e., 1E, 3E, 4Z, 5Z).

SMILES | MIC [µg/mL]
O=C1OCc2ccccc2/C1=C\c1ccccc1Br [14E] | 200 (≈ 635 µM)
O=C1OCc2ccccc2/C1=C\c1cccc(O)c1 [16E] | 200 (≈ 793 µM)

The compounds below were run on T1, S. cerevisiae wild-type CVX12-3A (assay: microbe, parasite or virus in culture). Conditions: Saccharomyces cerevisiae, 48 h, read-out: MIC.
Set-up: species or system whole yeast cells; macro tube broth dilution MIC in YEPD at 30 C, visual clearness of medium
Method: as §2

SMILES | MIC [µg/mL]
O=C1OCc2ccccc2/C1=C\c1ccccc1Br [14E] | 25 (≈ 79.3 µM)
O=C1OCc2ccccc2/C1=C\c1cccc(O)c1 [16E] | 200 (≈ 793 µM)

Each compound was assayed on T2, S. pombe wild-type 972 h- (assay: microbe, parasite or virus in culture). Conditions: Schizosaccharomyces pombe, 48 h, read-out: MIC.
Set-up: species or system whole yeast cells; macro tube broth dilution MIC in YEPD at 30 C, visual clearness of medium
Method: as §2

SMILES | MIC [µg/mL]
O=C1OCc2ccccc2/C1=C\c1ccccc1Br [14E] | 50 (≈ 159 µM)
O=C1OCc2ccccc2/C1=C\c1cccc(O)c1 [16E] | 100 (≈ 396 µM)

The compounds below were run on T3, Saccharomyces cerevisiae S. c.^d (wild-type CVX12-3A) (assay: microbe, parasite or virus in culture). Conditions: 48 h, YES + 1.2 M sorbitol.
T3 construct: CVX12-3A
Set-up: species or system yeast; micro tube dilution MIC in YES (± 1.2 M sorbitol), complete growth inhibition by turbidity
Method: as §1, with “experiments.” for “experiments. Next, the first generation of isochromanones (1E-16E) was also screened in YES medium (Table 5) and exerted a weaker antifungal potency than in YEPD medium and also than the second family of isochromanones in YES medium (17E-30E) (Table 6). The strains are partly different from the previously mentioned ones (Tables 5, 6) analyzing two wild type C. albicans strains because they behaved similarly in YEPD. It is remarkable that there was no effect against either the C. albicans, the S. cerevisiae, or the S. pombe wild-type strains, except with 30E.”

SMILES | MIC [µg/mL]
O=C1OCc2ccccc2/C1=C/c1ccc([N+](=O)[O-])cc1 [17Z] | > 200

The compounds below were run on Candida albicans C. a.^f (Tables 5, 6) (assay: microbe, parasite or virus in culture). Conditions: 48 h, YES + 1.2 M sorbitol.
Set-up: species or system yeast; micro tube dilution MIC in YES (± 1.2 M sorbitol), complete growth inhibition by turbidity
Method: as §1, with “experiments.” for “experiments. Next, the first generation of isochromanones (1E-16E) was also screened in YES medium (Table 5) and exerted a weaker antifungal potency than in YEPD medium and also than the second family of isochromanones in YES medium (17E-30E) (Table 6). The strains are partly different from the previously mentioned ones (Tables 5, 6) analyzing two wild type C. albicans strains because they behaved similarly in YEPD. It is remarkable that there was no effect against either the C. albicans, the S. cerevisiae, or the S. pombe wild-type strains, except with 30E.”

SMILES | MIC [µg/mL]
O=C1OCc2ccccc2/C1=C/c1ccc([N+](=O)[O-])cc1 [17Z] | > 200

These compounds were tested on Candida albicans C. a.^g (Table 6) (assay: microbe, parasite or virus in culture). Conditions: 48 h, YES + 1.2 M sorbitol.
Set-up: species or system yeast; micro tube dilution MIC in YES (± 1.2 M sorbitol), complete growth inhibition by turbidity
Method: as §1, with “experiments.” for “experiments. Next, the first generation of isochromanones (1E-16E) was also screened in YES medium (Table 5) and exerted a weaker antifungal potency than in YEPD medium and also than the second family of isochromanones in YES medium (17E-30E) (Table 6). The strains are partly different from the previously mentioned ones (Tables 5, 6) analyzing two wild type C. albicans strains because they behaved similarly in YEPD. It is remarkable that there was no effect against either the C. albicans, the S. cerevisiae, or the S. pombe wild-type strains, except with 30E.”

SMILES | MIC [µg/mL]
O=C1OCc2ccccc2/C1=C/c1ccc([N+](=O)[O-])cc1 [17Z] | > 200

Each compound was assayed on T4, Schizosaccharomyces pombe S. p.^a (wild-type 972 h-) (assay: microbe, parasite or virus in culture). Conditions: 48 h, YES + 1.2 M sorbitol.
T4 construct: 972 h-
Set-up: species or system yeast; micro tube dilution MIC in YES (± 1.2 M sorbitol), complete growth inhibition by turbidity
Method: as §1, with “experiments.” for “experiments. Next, the first generation of isochromanones (1E-16E) was also screened in YES medium (Table 5) and exerted a weaker antifungal potency than in YEPD medium and also than the second family of isochromanones in YES medium (17E-30E) (Table 6). The strains are partly different from the previously mentioned ones (Tables 5, 6) analyzing two wild type C. albicans strains because they behaved similarly in YEPD. It is remarkable that there was no effect against either the C. albicans, the S. cerevisiae, or the S. pombe wild-type strains, except with 30E.”

SMILES | MIC [µg/mL]
O=C1OCc2ccccc2/C1=C/c1ccc([N+](=O)[O-])cc1 [17Z] | > 200

Tested on: C. albicans wild-type
Assay: microbe, parasite or virus in culture
Set-up: species or system whole yeast cells; macro tube broth dilution MIC in YEPD at 30 C, visual clearness of medium
Conditions: Candida albicans, 48 h, read-out: MIC
Remark: another data set of the same source
Method: as §2

SMILES | MIC [µg/mL]
O=C1OCc2ccccc2/C1=C\c1ccccc1Br [14E] | > 200
O=C1OCc2ccccc2/C1=C\c1cccc(O)c1 [16E] | 50 (≈ 198 µM)

Tested on: C. albicans wild-type
Assay: microbe, parasite or virus in culture
Set-up: species or system whole yeast cells; macro tube broth dilution MIC in YEPD at 30 C, visual clearness of medium
Conditions: Candida albicans, 48 h, read-out: MIC
Remark: another data set of the same source
Method: as §2

SMILES | MIC [µg/mL]
O=C1OCc2ccccc2/C1=C\c1ccccc1Br [14E] | 200 (≈ 635 µM)
O=C1OCc2ccccc2/C1=C\c1cccc(O)c1 [16E] | 200 (≈ 793 µM)
